# Data as given in BigSolDB 2.1.
structure (smiles),measurement,setting,value
CSCC[C@H](NC(C)=O)C(=O)O,solubility (mole fraction),"in 2-butanone, 283.15 K",0.0192
same,solubility (mole fraction),"in 2-butanone, 288.15 K",0.0243
same,solubility (mole fraction),"in 2-butanone, 293.15 K",0.0316
same,solubility (mole fraction),"in 2-butanone, 298.15 K",0.0408
same,solubility (mole fraction),"in 2-butanone, 303.15 K",0.0546
same,solubility (mole fraction),"in 2-butanone, 308.15 K",0.0764
same,solubility (mole fraction),"in 2-butanone, 313.15 K",0.112
same,solubility (mole fraction),"in 2-butanone, 318.15 K",0.135
same,solubility (mole fraction),"in 2-butanone, 323.15 K",0.18
same,solubility (mole fraction),"in acetone, 283.15 K",0.0372
same,solubility (mole fraction),"in acetone, 288.15 K",0.0524
same,solubility (mole fraction),"in acetone, 293.15 K",0.0643
same,solubility (mole fraction),"in acetone, 298.15 K",0.0899
same,solubility (mole fraction),"in acetone, 303.15 K",0.118
same,solubility (mole fraction),"in acetone, 308.15 K",0.154
same,solubility (mole fraction),"in acetone, 313.15 K",0.195
same,solubility (mole fraction),"in acetone, 318.15 K",0.231
same,solubility (mole fraction),"in acetone, 323.15 K",0.283
same,solubility (mole fraction),"in acetonitrile, 283.15 K",0.00684
same,solubility (mole fraction),"in acetonitrile, 288.15 K",0.00873
same,solubility (mole fraction),"in acetonitrile, 293.15 K",0.0119
same,solubility (mole fraction),"in acetonitrile, 298.15 K",0.0167
same,solubility (mole fraction),"in acetonitrile, 303.15 K",0.0238
same,solubility (mole fraction),"in acetonitrile, 308.15 K",0.0354
same,solubility (mole fraction),"in acetonitrile, 313.15 K",0.0549
same,solubility (mole fraction),"in acetonitrile, 318.15 K",0.0912
same,solubility (mole fraction),"in acetonitrile, 323.15 K",0.154
same,solubility (mole fraction),"in dimethyl carbonate, 283.15 K",0.00222
same,solubility (mole fraction),"in dimethyl carbonate, 288.15 K",0.00268
same,solubility (mole fraction),"in dimethyl carbonate, 293.15 K",0.00369
same,solubility (mole fraction),"in dimethyl carbonate, 298.15 K",0.00531
same,solubility (mole fraction),"in dimethyl carbonate, 303.15 K",0.00614
same,solubility (mole fraction),"in dimethyl carbonate, 308.15 K",0.00835
same,solubility (mole fraction),"in dimethyl carbonate, 313.15 K",0.0109
same,solubility (mole fraction),"in dimethyl carbonate, 318.15 K",0.0151
same,solubility (mole fraction),"in dimethyl carbonate, 323.15 K",0.0216
same,solubility (mole fraction),"in ethanol, 283.15 K",0.0966
same,solubility (mole fraction),"in ethanol, 288.15 K",0.121
same,solubility (mole fraction),"in ethanol, 293.15 K",0.145
same,solubility (mole fraction),"in ethanol, 298.15 K",0.163
same,solubility (mole fraction),"in ethanol, 303.15 K",0.186
same,solubility (mole fraction),"in ethanol, 308.15 K",0.222
same,solubility (mole fraction),"in ethanol, 313.15 K",0.285
same,solubility (mole fraction),"in ethanol, 318.15 K",0.343
same,solubility (mole fraction),"in ethanol, 323.15 K",0.409
same,solubility (mole fraction),"in ethyl acetate, 283.15 K",0.00553
same,solubility (mole fraction),"in ethyl acetate, 288.15 K",0.00645
same,solubility (mole fraction),"in ethyl acetate, 293.15 K",0.00846
same,solubility (mole fraction),"in ethyl acetate, 298.15 K",0.0101
same,solubility (mole fraction),"in ethyl acetate, 303.15 K",0.0134
same,solubility (mole fraction),"in ethyl acetate, 308.15 K",0.0169
same,solubility (mole fraction),"in ethyl acetate, 313.15 K",0.022
same,solubility (mole fraction),"in ethyl acetate, 318.15 K",0.0284
same,solubility (mole fraction),"in ethyl acetate, 323.15 K",0.0399
same,solubility (mole fraction),"in methyl acetate, 283.15 K",0.00709
same,solubility (mole fraction),"in methyl acetate, 288.15 K",0.00877
same,solubility (mole fraction),"in methyl acetate, 293.15 K",0.0113
same,solubility (mole fraction),"in methyl acetate, 298.15 K",0.015
same,solubility (mole fraction),"in methyl acetate, 303.15 K",0.0193
same,solubility (mole fraction),"in methyl acetate, 308.15 K",0.026
same,solubility (mole fraction),"in methyl acetate, 313.15 K",0.0358
same,solubility (mole fraction),"in methyl acetate, 318.15 K",0.052
same,solubility (mole fraction),"in methyl acetate, 323.15 K",0.0821
same,solubility (mole fraction),"in n-butanol, 283.15 K",0.0531
same,solubility (mole fraction),"in n-butanol, 288.15 K",0.0697
same,solubility (mole fraction),"in n-butanol, 293.15 K",0.084
same,solubility (mole fraction),"in n-butanol, 298.15 K",0.103
same,solubility (mole fraction),"in n-butanol, 303.15 K",0.121
same,solubility (mole fraction),"in n-butanol, 308.15 K",0.145
same,solubility (mole fraction),"in n-butanol, 313.15 K",0.175
same,solubility (mole fraction),"in n-butanol, 318.15 K",0.207
same,solubility (mole fraction),"in n-butanol, 323.15 K",0.242
same,solubility (mole fraction),"in n-butyl acetate, 283.15 K",0.00312
same,solubility (mole fraction),"in n-butyl acetate, 288.15 K",0.00346
same,solubility (mole fraction),"in n-butyl acetate, 293.15 K",0.00409
same,solubility (mole fraction),"in n-butyl acetate, 298.15 K",0.00536
same,solubility (mole fraction),"in n-butyl acetate, 303.15 K",0.00667
same,solubility (mole fraction),"in n-butyl acetate, 308.15 K",0.00833
same,solubility (mole fraction),"in n-butyl acetate, 313.15 K",0.0103
same,solubility (mole fraction),"in n-butyl acetate, 318.15 K",0.0137
same,solubility (mole fraction),"in n-butyl acetate, 323.15 K",0.0171
same,solubility (mole fraction),"in n-pentanol, 283.15 K",0.0417
same,solubility (mole fraction),"in n-pentanol, 288.15 K",0.05
same,solubility (mole fraction),"in n-pentanol, 293.15 K",0.0609
same,solubility (mole fraction),"in n-pentanol, 298.15 K",0.0755
same,solubility (mole fraction),"in n-pentanol, 303.15 K",0.0901
same,solubility (mole fraction),"in n-pentanol, 308.15 K",0.113
same,solubility (mole fraction),"in n-pentanol, 313.15 K",0.14
same,solubility (mole fraction),"in n-pentanol, 318.15 K",0.167
same,solubility (mole fraction),"in n-pentanol, 323.15 K",0.212
same,solubility (mole fraction),"in n-propanol, 283.15 K",0.0668
same,solubility (mole fraction),"in n-propanol, 288.15 K",0.0825
same,solubility (mole fraction),"in n-propanol, 293.15 K",0.099
same,solubility (mole fraction),"in n-propanol, 298.15 K",0.127
same,solubility (mole fraction),"in n-propanol, 303.15 K",0.158
same,solubility (mole fraction),"in n-propanol, 308.15 K",0.191
same,solubility (mole fraction),"in n-propanol, 313.15 K",0.237
same,solubility (mole fraction),"in n-propanol, 318.15 K",0.281
same,solubility (mole fraction),"in n-propanol, 323.15 K",0.327
same,solubility (mole fraction),"in n-propyl acetate, 283.15 K",0.0037
same,solubility (mole fraction),"in n-propyl acetate, 288.15 K",0.00414
same,solubility (mole fraction),"in n-propyl acetate, 293.15 K",0.00487
same,solubility (mole fraction),"in n-propyl acetate, 298.15 K",0.00685
same,solubility (mole fraction),"in n-propyl acetate, 303.15 K",0.00834
same,solubility (mole fraction),"in n-propyl acetate, 308.15 K",0.0107
same,solubility (mole fraction),"in n-propyl acetate, 313.15 K",0.013
same,solubility (mole fraction),"in n-propyl acetate, 318.15 K",0.0171
same,solubility (mole fraction),"in n-propyl acetate, 323.15 K",0.021
